Laboratory results taken from patent US20210221848A1, “POLYMYXIN DERIVATIVES AND THEIR USE IN COMBINATION THERAPY TOGETHER WITH DIFFERENT ANTIBIOTICS” (priority 2014, published 2021).
Read-outs that look alike come from different tables or passages of the source.

How the values were obtained:
K. pneumoniae [1] = assay: MIC in the presence of a fixed concentration (2 μg/mL) of Rifampicin; format: cell-based, Klebsiella pneumoniae; conditions: Rifampicin 2 μg/mL, Table 5C
A. baumannii = assay: MIC in the presence of […] of rifampicin; format: cell-based, Acinetobacter baumannii; conditions: A. baumannii ATCC BAA-747, Table 5C
E. coli [2] = assay: MIC in 1:1 (wt:wt) combination with Rifampicin; format: cell-based, Escherichia coli; conditions: 1:1 (wt:wt) with Rifampicin, total drug concentration
Experimental: (§1) The inoculum was prepared by making a direct suspension of isolated colonies (selected from an 18-24 hour Mueller-Hinton agar plate) adjusted to the 0.5 McFarland standard. […] The assays were performed in duplicate. […] In cases where the duplicate values varied by less than 2-fold, the lower of the two values is reported. If a variation of greater than 2-fold was observed, the assay was considered non-valid. Several of the compounds were subjected to multiple tests, and where this is the case, the MIC reflects the modal value obtained.
(§2) MIC values (microgram/mL) refer to the total drug concentration (i.e. test agent plus Rifampicin).

K. pneumoniae [3] = assay: MIC in 1:1 (wt:wt) combination with Rifampicin; format: cell-based, Klebsiella pneumoniae; conditions: 1:1 (wt:wt) with Rifampicin, total drug concentration
Experimental: as §1, §2

P. aeruginosa [4] = assay: MIC in 1:1 (wt:wt) combination with Rifampicin; format: cell-based, Pseudomonas aeruginosa; conditions: 1:1 (wt:wt) with Rifampicin, total drug concentration
Experimental: as §1, §2

[5] = system: E. coli strains with elevated MICs to Polymyxin B; assay: MIC against strains with elevated MICs to Polymyxin B; format: cell-based, Escherichia coli; conditions: for MIC E. coli 058: strain 058, elevated MIC to Polymyxin B; for MIC E. coli 059: strain 059, elevated MIC to Polymyxin B; for MIC E. coli 060: strain 060, elevated MIC to Polymyxin B; for MIC E. coli 061: strain 061, elevated MIC to Polymyxin B
Outline: (§3)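 Duplicate runs; >2-fold disagreement = invalid, <2-fold = lower value kept. Inoculum: colonies (18-24 h Mueller-Hinton agar) suspended directly to 0.5 McFarland. Multiple tests → modal MIC.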

[6] = system: K. pneumoniae strains with elevated MICs to Polymyxin B; assay: as above; format: cell-based, Klebsiella pneumoniae; conditions: for MIC K. pneumoniae 062: strain 062, elevated MIC to Polymyxin B; for MIC K. pneumoniae 063: strain 063, elevated MIC to Polymyxin B; for MIC K. pneumoniae 064: strain 064, elevated MIC to Polymyxin B; for MIC K. pneumoniae 655: strain 655, elevated MIC to Polymyxin B
Outline: as §3

HK-2 cell line = assay: In vitro renal cell toxicity assay (resazurin reduction); conditions: HK-2 cell IC50 expressed relative to the value for polymyxin B
Experimental: MICs were determined as described herein. HK-2 cell IC50 values were determined as described herein. Values are reported relative to Polymyxin B.

[7] = system: Acinetobacter baumannii NCTC 13301; conditions: mouse lungs, A. baumannii NCTC 13301, SC at 2, 6 and 10 h post-infection, 16 h infection model
Experimental: On Day 0, animals were infected with 0.04 mL inoculum by intranasal instillation into mouse nostrils and were kept in an upright position on a string rack for ˜10 min post-infection. […] The vehicle control group (7 mice) was treated with 0.9% saline for injection at 2, 6 and 10 h post-infection.
(§4) Sixteen hours after infection, the mice were euthanized humanely. The lungs of each animal were harvested, homogenized and quantitatively cultured onto CLED agar for CFU determination. Decrease of the total CFU compared to control counts at 16 h post-infection was determined for each dose group.

[8] = system: Pseudomonas aeruginosa ATCC 27853; format: in vivo; conditions: mouse lungs, P. aeruginosa ATCC 27853, SC at 2, 6 and 10 h post-infection, 16 h infection model
Experimental: Groups of 7 male neutropenic specific-pathogen-free CD-1 mice weighing 21.5-27.5 g were used. On Day 0, animals were infected with 0.04 mL inoculum by intranasal instillation into mouse nostrils and were kept in an upright position on a string rack for ˜10 min post-infection. […] At 2 h, the CFU count was determined from 3 mice and the remaining mice (7 per test compound groups) were treated with a subcutaneous injection of the drug at +2, 6 and 10 hr post-infection. Test compounds and the comparator polymyxin B were administered at four concentrations (2.6, 8.6, 17.2 and 25.8 mg/kg free base). The vehicle control group (7 mice) was treated with 0.9% saline for injection at 2, 6 and 10 h post-infection.
as §4
The in vivo efficacy of 4 compounds of the invention (D25, D36, D42 and D50) was evaluated in a mouse lung infection model of P. aeruginosa ATCC 27853. The model was setup as described above with the exception that groups of up to 8 mice were inoculated through intranasal instillation of ˜2.5×10^6 CFUs of P. aeruginosa isolate ATCC 27853 (1.0×10^5 CFU/lung). Test compounds were administered at two concentrations (equivalent to 4.3 and 17.2 mg/kg free base). Three dose levels of polymyxin B sulfate were used as comparator (equivalent to 4.3, 8.6 and 17.2 mg/kg free base).

E. coli [9] = system: E. coli
P. aeruginosa [10] = system: P. aeruginosa
[11] = system: Escherichia coli ATCC 25922; conditions: mouse thigh, 3.4 mg/kg/dose free base IV at 1, 3.5 and 6 h post-infection, 9 h model

With Polymyxin B [PMB, reference compound] the “MIC in combination with Rifampicin, K. pneumoniae ATCC 4352” value (K. pneumoniae [1]; K. pneumoniae ATCC 4352) was 0.06 micrograms/mL, the “MIC in combination with Rifampicin, K. pneumoniae ATCC BAA-2146” value (K. pneumoniae [1]; K. pneumoniae ATCC BAA-2146) was 0.25 micrograms/mL and the “MIC in combination with Rifampicin, A. baumannii ATCC BAA-747” value (A. baumannii) was 0.03 micrograms/mL. The “MIC in 1:1 combination with rifampicin, E. coli 058” value (E. coli [2]; E. coli 058) was 1 microgram/mL, the “MIC in 1:1 combination with rifampicin, E. coli 059” value (E. coli [2]; E. coli 059) was ≤0.5 microgram/mL and the “MIC in 1:1 combination with rifampicin, E. coli 060” value (E. coli [2]; E. coli 060) was 1 microgram/mL. For the same substance, the “MIC in 1:1 combination with rifampicin, E. coli ATCC 25922” value (E. coli [2]; E. coli ATCC 25922) was ≤0.5 microgram/mL, the “MIC in 1:1 combination with rifampicin, K. pneumoniae 062” value (K. pneumoniae [3]; K. pneumoniae 062) was 1 microgram/mL and the “MIC in 1:1 combination with rifampicin, K. pneumoniae CCUG 59348” value (K. pneumoniae [3]; K. pneumoniae CCUG 59348) was 1 microgram/mL. For the same substance, the “MIC in 1:1 combination with rifampicin, P. aeruginosa 063” value (P. aeruginosa [4]; P. aeruginosa 063) was 16 microgram/mL, the “MIC in 1:1 combination with rifampicin, P. aeruginosa 068” value (P. aeruginosa [4]; P. aeruginosa 068) was 1 microgram/mL and the “MIC E. coli 058” value ([5]; Table 6D) was 4 micrograms/mL. The “MIC E. coli 058” value ([5]; Table 6F) was 4 micrograms/mL, the “MIC E. coli 059” value ([5]; Table 6D) was 4 micrograms/mL and the “MIC E. coli 059” value ([5]; Table 6F) was 4 micrograms/mL. For the same substance, the “MIC E. coli 060” value ([5]; Table 6D) was 4 micrograms/mL, the “MIC E. coli 060” value ([5]; Table 6F) was 4 micrograms/mL and the “MIC E. coli 061” value ([5]; Table 6D) was 16 micrograms/mL. For the same substance, the “MIC E. coli 061” value ([5]; Table 6F) was 16 micrograms/mL, the “MIC K. pneumoniae 062” value ([6]; Table 6D) was 128 micrograms/mL and the “MIC K. pneumoniae 062” value ([6]; Table 6F) was 128 micrograms/mL. For the same substance, the “MIC K. pneumoniae 063” value ([6]; Table 6D) was 32 micrograms/mL, the “MIC K. pneumoniae 063” value ([6]; Table 6F) was 32 micrograms/mL and the “MIC K. pneumoniae 064” value ([6]; Table 6D) was 8 micrograms/mL. For the same substance, the “MIC K. pneumoniae 064” value ([6]; Table 6F) was 8 micrograms/mL, the “MIC K. pneumoniae 655” value ([6]; Table 6D) was 32 micrograms/mL and the “MIC K. pneumoniae 655” value ([6]; Table 6F) was 32 micrograms/mL. For the same substance, the “HK-2 rel to PMB” value (HK-2 cell line) was 1, the “Mean log10 CFU reduction vs. control” value ([7]; 2.6 mg/kg/dose free base) was 0.79 log10 CFU and the “Mean log10 CFU reduction vs. control” value ([7]; 8.6 mg/kg/dose free base) was 0.58 log10 CFU. For the same substance, the “Mean log10 CFU reduction vs. control” value ([7]; 17.2 mg/kg/dose free base) was 0.54 log10 CFU, the “Mean log10 CFU reduction vs. control” value ([7]; 25.8 mg/kg/dose free base) was 1.10 log10 CFU and the “Mean log10 CFU reduction vs. control” value ([8]; 8.6 mg/kg/dose free base) was 1.46 log10 CFU. For the same substance, the “Mean log10 CFU reduction vs. control” value ([8]; 17.2 mg/kg/dose free base) was 2.87 log10 CFU, the MIC (E. coli [9]; E. coli ATCC 25922) was 0.25 µg/mL and the “MIC, E. coli ATCC 25922” value (E. coli [9]; E. coli ATCC 25922, absence of a second agent, Table 6B) was 0.25 micrograms/mL. The MIC (E. coli [9]; E. coli NCTC 13441) was 0.25 µg/mL, the “MIC, E. coli NCTC 13441” value (E. coli [9]; E. coli NCTC 13441, absence of a second agent, Table 6B) was 0.25 micrograms/mL and the “MIC, E. coli ATCC 25922” value (E. coli [9]; strain ATCC 25922, compound alone) was 0.25 micrograms/mL. The “MIC E. coli CCUG 59342” value (E. coli [9]; strain CCUG 59342, compound alone) was 0.125 micrograms/mL, the MIC (P. aeruginosa [10]; P. aeruginosa ATCC 27853) was 0.5 µg/mL and the “MIC, P. aeruginosa ATCC 27853” value (P. aeruginosa [10]; P. aeruginosa ATCC 27853, absence of a second agent, Table 6B) was 0.5 micrograms/mL. For the same substance, the MIC (P. aeruginosa [10]; P. aeruginosa CCUG 59347) was 0.5 µg/mL, the “MIC, P. aeruginosa CCUG 59347” value (P. aeruginosa [10]; P. aeruginosa CCUG 59347, absence of a second agent, Table 6B) was 0.5 micrograms/mL and the “MIC, P. aeruginosa ATCC 27853” value (P. aeruginosa [10]; strain ATCC 27853, compound alone) was 0.5 micrograms/mL. The “MIC, P. aeruginosa CCUG 59347” value (P. aeruginosa [10]; strain CCUG 59347, compound alone) was 0.5 micrograms/mL and the “Mean log10 CFU reduction vs. control” value [11] was 4.32 log10 CFU.
